Measurements from patent publication US20130129840A1, “COMBINATION THERAPY USING A RUTHENIUM COMPLEX” (Niiki Pharma Inc., priority 2010, published 2013).

Tests used:
cancer = conditions: cited from earlier work
colon cancer cells = conditions: preclinical studies, Kapitza et al. 2005; cited from earlier work
[1] = system: Hep3B liver carcinoma xenograft; assay: Hep3B liver carcinoma xenograft assay, survival; type: in vivo, CB17 SCID mice; conditions: SCID mice, test drug 30 mg/kg i.v. day 1 and 8, sorafenib 25 mg/kg p.o. days 1-5 and 8-12, control 33 days
Protocol: Xenograft Assay: CB17 severe combined immunodeficient (SCID) female mice were used for all in vivo studies. The mice received food and water ad libitum. For tumor application, logarithmically growing Hep3B cells in cell culture were collected by trypsinization and washed once in serum-free culture medium. The cells were then pelleted and resuspended in culture medium to a final cell count of 2×10^7/ml. 50 μl of the cell suspension was injected s.c. in the right flank of each mouse. Treatment started when all animals in the study had established tumors of a size of about 3×3 mm.
Sorafenib (LC Laboratories, Woburn, Mass., USA) was dissolved in DMSO (50 mg/ml), further diluted in Cremophor EL/95% ethanol (50:50; Sigma), which was followed by a 1:4 dilution in water. 100 μl sorafenib was administered p.o. once daily at 5 consecutive days for two weeks at a dose of 25 mg/kg body weight (days 1-5 and days 8-12).
Tumor size was calculated using the equation (l×w^2)/2, where l and w refer to the larger and smaller dimensions, respectively, of the tumor. 4 mice were used in each group for each data point.

Structure (SMILES) | anti-cancer activities in a phase I clinical trial (cancer) | inducing apoptosis in colon cancer cells (colon cancer cells) | increase in life span / mean survival vs. control [1] | mean survival [1]
[Cl-].[Cl-].[Cl-].[Cl-].[Ru+3].c1ccc2[nH][nH+]cc2c1.c1ccc2[nH]ncc2c1.c1ccc2[nH]ncc2c1 [KP1019, indazolium trans-[tetrachlorobis(1H-indazole)ruthenate (III)]] | some anti-cancer activities | effective in inducing apoptosis | – | –
[Cl][Ru-]([Cl])([Cl])[Cl].[Na+].c1ccc2[nH]ncc2c1.c1ccc2[nH]ncc2c1 [Test drug] | – | effective in inducing apoptosis | 2.4 fold | 80 days
CNC(=O)c1cc(Oc2ccc(NC(=O)Nc3ccc(Cl)c(C(F)(F)F)c3)cc2)ccn1 [sorafenib, reference compound] | – | – | 1.9 fold | 60 days
